This passage reports ED50 results from patent EP0135770A2, “Imidazobenzodiazepine derivatives, process for their preparation and medicaments containing them” (F. HOFFMANN-LA ROCHE & CO. Aktiengesellschaft, priority 1983, dated 1985).

In data set [1] the test system is CF-1-Mäuse. Briefly: Intravenous antimetrazol test (Intravenöser Antimetrazoltest), protection against Metrazol convulsions. The class given is in vivo. Particulars: Mus musculus, 1 h, oral dosing, Metrazol 70 mg/kg i.v. one hour later, 50% of animals without convulsions. As for the experimental part: Männliche CF-1-Mäuse, welche 45-54 Tage alt sind und während ungefähr 24 Stunden vom Futter ferngehalten wurden, werden in diesem Test eingesetzt. Die Testverbindung, dispergiert in 5% Akazienöl, wird 3 Mäusen oral verabreicht und zwar bei einer Dosis, die 1/10 der im TSP-Test ermittelten Lethaldosis entspricht. Eine Stunde später wird Metrazol intravenös verabreicht (70 mg/kg: konvulsive Dosis 100 mg/kg) und die Versuchstiere während 30 Sekunden beobachtet, ob ein Schutz gegenüber den Krampfanfällen eintritt. Falls die Testverbindung oral aktiv ist, werden pro Dosis 3 Versuchstiere eingesetzt. Die Dosis, bei der 50% der Versuchstiere keinerlei Krampfanfälle erleiden, wird als ED50-Wert bezeichnet.
Gemacht Messungen: Die Anzahl der Versuchstiere, welche gegen Krampfanfälle geschützt sind.
Berechnun^qen: Falls die Prüfsubstanz aktiv ist und 3 Mäuse pro Dosis eingesetzt werden, wird der approximative ED -Wert nach der Methode von Miller und Tainter (Proc. Soc. Exp. Biol. med. 57:261 (1944)) berechnet. Falls 6 oder mehr Mäuse pro Dosis eingesetzt werden, wird der ED50--Wert sowie der 95%ige Vertrauensbereich mit Hilfe eines Computerprogramms berechnet, welches auf der Methode von D.J. Finney (Probit Analysis, Cambridge University Press. Cambridge, England, 1971) beruht.
Dieser Test eignet sich zur Evaluation von Antikonvulsiva und ist für eine Aussage bezüglich der anxiolytischen Wirkung relevant.

Data set [2] has as its system CF-1-Mäuse. Briefly: Rotating rod test (Rotierstabtest), mice observed 30 min after dosing. The class given is in vivo. The source says: Dieser Test ist eine Modifikation der von N.W. Dunham und T.S. Miya in J.A. Ph. A. Sci. Ed. 46, 208 (1957) beschriebenen Methode. CF-1-Mäuse, welche aufgrund ihrer Fähigkeit ausgewählt worden sind, sich während 2 Minuten auf einem Rotierstab von 30 mm Durchmesser und 16 Umdrehungen pro Minute halten zu können, werden verwendet. Gruppen von je 8 Mäusen werden 30 Minuten nach Verabreichung der Testverbindung auf den Rotierstab verbracht und während 2 Minuten beobachtet. Diejenigen Mäuse, die sich nicht während der vollen 2 Minuten auf dem Rotierstab halten können, werden als durch die Testverbindung beeinflusst qualifiziert. Die Anzahl derjenigen Mäuse, die sich auf dem Rotierstab nicht halten können, wird in Prozent der Gesamtanzahl Mäuse in jeder Gruppe bei den verschiedenen Dosen angegeben. Diese Prozentwerte werden gegen die Dosis auf logarithmischem Papier aufgezeichnet, und der ED5o-Wert wird nach der Methode von L.C. Miller und M.L. Tainter in Proc. Soc. Exp. Biol. Med. 57, 26 (1944) ermittelt.
Der Zweck des vorliegenden Tests ist die Ueberprüfung von chemischen Verbindungen im Hinblick auf ihre Wirkung auf den Muskeltonus und/oder die muskuläre Koordination. speziell diejenige von Muskelrelaxantien, Sedativa oder Stimulantien.

The mark [3] stands for this setting: Mus musculus, po, 0.5 h, compounds of the invention, mice unable to stay 2 min on the rotating rod, 30 min after administration, read-out: ED50.
Setting [4] is: Mus musculus, po, 0.5 h, standard compounds, mice unable to stay 2 min on the rotating rod, 30 min after administration, read-out: ED50.

For `NC(=O)c1ncn2c1CN=C(c1ccccc1Cl)c1ccccc1-2` [Beispiel 27, 6-(2-Chlorphenyl)-4H-imidazo[1,5-a][1,4]benzodiazepin-3-carboxamid], the ED50 is 7.4 mg/kg with CF-1-Mäuse [1] (compounds of the invention) and greater than 200 mg/kg in the data set with CF-1-Mäuse [2] (setting [3]).

Take `NC(=O)c1ncn2c1CN=C(c1ccccc1Cl)c1ccc(Cl)cc1-2` [Beispiel 31, 9-Chlor-6-(2-chlorphenyl)-4H-imidazo[1,5-a][1,4]benzodiazepin-3-carboxamid]: the ED50 is 0.97 mg/kg with CF-1-Mäuse [1] (compounds of the invention) and greater than 200 mg/kg with CF-1-Mäuse [2] (setting [3]).

Turning to `Cc1nc(C(N)=O)c2n1-c1ccccc1C(c1ccccc1Cl)=NC2` [Beispiel 63, 6-(2-Chlorphenyl)-1-methyl-4H-imidazo[1,5-a][1,4]benzodiazepin-3-carboxamid], the ED50 in the data set with CF-1-Mäuse [1] (compounds of the invention) is 5.1 mg/kg; in the data set on CF-1-Mäuse [2] (setting [3]), greater than 200 mg/kg.

In turn, `CC(=O)NC(=O)c1ncn2c1CN=C(c1ccccc1Cl)c1ccccc1-2` [Beispiel 68, N-Acetyl-6-(2-chlorphenyl)-4H-imidazo[1,5-a][1,4]benzodiazepin-3-carboxamid] came in with an ED50 in the data set on CF-1-Mäuse [1] (compounds of the invention) of 1.3 mg/kg.

In the case of `NC(=O)c1ncn2c1C(O)N=C(c1ccccc1Cl)c1ccccc1-2` (centres unmarked) [Beispiel 72, 6-(2-Chlorphenyl)-4-hydroxy-4H-imidazo[1,5-a][1,4]benzodiazepin-3-carboxamid], the figures for the ED50 in the data set on CF-1-Mäuse [1] (compounds of the invention) and in the data set on CF-1-Mäuse [2] (setting [3]) were 0.86 mg/kg and greater than 200 mg/kg, respectively.

For `CNC1=Nc2ccc(Cl)cc2C(c2ccccc2)=[N+]([O-])C1` [Chlordiazepoxyd, reference compound], the ED50 worked out at 3.9 mg/kg in the data set with CF-1-Mäuse [1] (standard compounds) and 33.5 mg/kg in the data set with CF-1-Mäuse [2] (setting [4]).

Regarding `CN(C)CCCN1c2ccccc2Sc2ccc(Cl)cc21` [Chlorpromazin, reference compound], the ED50 in the data set with CF-1-Mäuse [2] (setting [4]) came out at 10 mg/kg.

In the case of `CN1C(=O)CN=C(c2ccccc2)c2cc(Cl)ccc21` [Diazepam, reference compound], the ED50 worked out at 1 mg/kg with CF-1-Mäuse [1] (standard compounds) and 7.4 mg/kg with CF-1-Mäuse [2] (Mus musculus, po, 0.5 h).

As for `COc1ccc2c(c1)N(C[C@H](C)CN(C)C)c1ccccc1S2` [Methotrimeprazin, reference compound], the ED50 in the data set with CF-1-Mäuse [2] (setting [4]) was 3.8 mg/kg.

As to `CCC1(c2ccccc2)C(=O)NC(=O)NC1=O` [Natriumphenobarbital, reference compound], the ED50 in the data set with CF-1-Mäuse [1] (standard compounds) came out at 19 mg/kg.

In turn, “N-Acetyl-6-(2-chlorphenyl)-4H-imidazo-[1,5-a][1,4]benzodiazepin-3-carboxamid-acetylester” yielded an ED50 in the data set with CF-1-Mäuse [2] (compounds of the invention, mice unable to stay 2 min on the rotating rod, 30 min after administration) greater than 200 mg/kg p.o.
